For data set [1] the following is noted: paclitaxel comparison value; cited from earlier work.
The nature of data set [2]: Toxicity monitoring in the patient study. It counts as in vivo, human. From the text: In order to ensure that toxic limits are not exceeded, the effects of the administration on the subject are monitored. Possible effects include neurological impairment(s), which may manifest itself as cognitive/perceptual abnormalities, numbness in the limbs, difficulty in walking, dizziness, and the like. […] Other side effects may include nausea and vomiting, fatigue, rash, alopecia, and alteration in vital signs such as orthostatic hypotension.
H1/H2 blockers were given orally to the subjects 30-60 minutes prior to infusion to prevent any adverse reactions to the CREMOPHOR® in the composition. […] The patients were monitored by testing CBC with differential weekly, various laboratory tests every three weeks, and physical exams including neurological assessment every three weeks. Tumor assessments were made every six weeks.

Data set [3] relates to advanced malignancy, either primary or metastatic. The data set is described as follows: Tumor assessment / tumor markers in patients with advanced malignancy. Type of data set: in vivo, human. From the text: Other criteria included adequate liver, renal and hematopoietic function, i.e., recovery from reversible effects of previous therapies, if any. Subjects included in the study provided their informed consent.
Approximately 52 patients meeting the above-described criteria were enrolled in the study. Of the patients treated, approximately 60% were male and 40% female, ranging in age from 23 to 85 years. A wide range of tumor types were included in the study, including colon, ovarian, prostate, and lung tumors. Most of the enrollees had received multiple rounds of other chemotherapies prior to entering the study.
(§1) H1/H2 blockers were given orally to the subjects 30-60 minutes prior to infusion to prevent any adverse reactions to the CREMOPHOR® in the composition. […] Thus, a dosage of 9 mg/m^2 required about 10-15 minutes of infusing, while a dose of 150 mg/m^2 required 3-4 hours of dosing. The patients were monitored by testing CBC with differential weekly, various laboratory tests every three weeks, and physical exams including neurological assessment every three weeks. Tumor assessments were made every six weeks.

Data set [4] concerns microtubules in interphase cells (PBMC's). Kind of data set: Microtubule bundle formation in mononuclear cells (PBMC's) isolated from treated patients, immunofluorescence. It counts as in vivo, human. The source says:
The activity of the drug can be assessed by measuring bundling of microtubules in interphase cells. This is considered the hallmark of activity of microtubule-stabilizing agents such as paclitaxel. The bundle formation can readily be measured by immunofluorescence or Western blotting. In a typical determination, whole blood is collected from patients and mononuclear cells (PBMC's) are isolated for evaluation of bundle formation.
In addition to monitoring toxicity and pharmacokinetics, the pharmacodynamics of treatment was also monitored. The standard criterion is the ability of the drug to effect bundling of microtubules in interphase cells. Whole blood was collected from patients and mononuclear cells (PBMC's) were isolated. To measure bundle formation, the PBMC's were resuspended in 5% FBS/PBS containing 0.75×10^6 cells/mL and used to make cytospin preparations. The cells were then fixed in 100% methanol for 10 minutes at […], air dried and stored at 4° C. prior to immunostaining. For immunostaining, the cells were blocked in 10% Normal Goat Serum in PBS for 20 minutes and incubated with a 1:100 dilution of {tilde over (□)}tubulin monoclonal antibody diluted in 5% Normal Goat Serum in PBS for 1 hour at 37° C. The slides were then rinsed in PBS and incubated with 1:200 Cy3-conjugated goat anti-mouse IgG for 1 hour in the dark before mounting. Cell numbers were quantified using a Zeiss AXIOSCOP microscope and evaluated at levels of 500 cells per slide by individual investigators.

Data set [5] is described as follows: Pharmacokinetics of epothilone D in patients (plasma levels by LC/MS/MS after intravenous infusion). Type of data set: in vivo, human. As to the method: as §1
Both the pharmacokinetics and pharmacodynamics of epothilone D were measured in the subjects. Plasma concentration as a function of time was measured in the first- and second cycles at various dose levels in several subjects.
As would be expected, the levels at the end of infusion are high and taper off gradually, and the concentration levels at any particular time are dose-dependent.

Entries after “also recorded” stand apart in the source; their conditions may differ. Like-named read-outs stand apart in the source and are kept apart here.

Turning to `CC(=O)O[C@H]1C(=O)[C@@]2(C)[C@H]([C@H](OC(=O)c3ccccc3)[C@]3(O)C[C@H](OC(=O)[C@H](O)[C@@H](NC(=O)c4ccccc4)c4ccccc4)C(C)=C1C3(C)C)[C@]1(OC(C)=O)CO[C@@H]1C[C@@H]2O` [paclitaxel], in data set [1], the “volume of distribution (Vz)” value is 140±70 L/m^2.

Usually half-life stands for the time in which the quantity being followed falls by half. The term clearance denotes a measure of how efficiently the substance is removed, as volume per time. On to `C/C1=C/C[C@@H](/C(C)=C/c2csc(C)n2)OC(=O)C[C@H](O)C(C)(C)C(=O)[C@H](C)[C@@H](O)[C@@H](C)CCC1` [epothilone D, Desoxyepothilone B], for which the time of toxicity entry in data set [2] (dose level between 9 mg and about 60 mg per m^2) was “start at day five and continue to day 15”. The severity of toxicities entry in data set [2] (dose-dependent toxicities) is given as “generally of Grade-2 in severity”. Besides, in data set [2] (higher dosages such as 90 mg/m^2 and […]^2), the onset of toxicity result is recorded as “as soon as the day after infusion is terminated”. Besides, the myelosuppression entry in data set [2] (human, in vivo) is “generally not been seen; also recorded: No clear evidence of myelosuppression was observed”. Besides, the “disease status in patients receiving multiple cycles (at least four months)” value in data set [3] (human, in vivo) is recorded as “suggestive of stable disease”. Further, the tumor markers result in data set [3] (ovarian, pancreatic, testicular, breast, and biliary diseases) was “Tumor marker reductions were observed”. The “percentage of PBMCs with microtubule bundles” value was determined as 12% in data set [4] (dosage 18 mg/m^2) and 55% in data set [4] (dosage 120 mg/m^2). In addition, the “bundle formation at low dosage” value in data set [4] (dosage as low as 18 mg/m^2) is on record as “Substantial amounts of bundle formation”. In data set [5] (dose range about 9 mg/m^2 to about 150 mg/m^2, first and second cycles), the “dependence of the area under the curve (AUC) on dosage” value is “linear correlation”. Besides, the half-life in data set [5] (human, in vivo, intravenous infusion, summary over study, read-out: half-life, mean value) is 8 to 10 h; in data set [5] (human, in vivo, patients treated at 100 mg/m^2, averaged, read-out: elimination half-life (converted)), 8.8 ± 2.4 h. Also, the clearance in data set [5] (human, in vivo, patients treated at 100 mg/m^2, averaged, read-out: Drug clearance (converted)) is 315 mL/min. In addition, in data set [5] (human, in vivo, patients treated at 100 mg/m^2, averaged, read-out: volume of distribution (Vz)), the Vd stood at 232 ± 82 L. Also, in data set [5] (two cycles, three subjects at 60 mg/m^2), the “difference in pharmacokinetics between cycles” value was “no discernable difference”.

These data come from patent publication US20040072882A1 (priority 2002, published 2004).
